# Experimental data as given in PubChem BioAssay AID1259333 (Broad Institute, 2017).
# The source made the active and inactive calls. No rule for the calls is given here; tested in parental BL2 cells.
# Assay: cell cytotoxicity, dose response, cytotoxicity control, CellTiter-Glo (AID 1259333);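 also: 0% = vehicle neutral controls and -100% = reference inhibitor positive controls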
# Conditions: cytotoxicity, CellTiter-Glo ATP luminescence; at 3.5 µM (top of the series)
row,Structure (SMILES),"activity change, negative = cytotoxicity"
1,Cc1ccccc1NC(=O)c1nc(S(C)(=O)=O)ncc1Cl,64.5% (inactive)
2,COc1cccc(S(=O)(=O)N(C)C[C@H]2OCc3ccccc3-c3c(n(C)c4ccccc34)C(=O)N([C@@H](C)CO)C[C@H]2C)c1,15.7% (inactive)
3,C[C@@H]1CCCCO[C@@H](CN(C)CC2CCCCC2)[C@@H](C)CN([C@@H](C)CO)C(=O)c2cc(NC(=O)Nc3ccc(C(F)(F)F)cc3)ccc2O1,15% (inactive)

# Same assay, conditions: cytotoxicity, CellTiter-Glo ATP luminescence; at 10 µM (top of the series)
row,Structure (SMILES),"activity change, negative = cytotoxicity"
1,COc1cc2c(cc1OC)C(=O)C(Br)CC2 (stereo unspecified),112% (inactive)
2,Cc1ccc2c(c1)C(O)(CC(=O)/C=C/C=C/c1ccccc1)C(=O)N2 (stereo unspecified),24.8% (inactive)
3,CC(=O)Nc1ccc(S(=O)(=O)c2ccc(N)cc2)cc1,13.9% (inactive)
4,O=S(c1ccccc1O)S(=O)c1ccccc1O (stereo unspecified),40.7% (inactive)
5,C[C@H]1CN([C@@H](C)CO)C(=O)c2ccccc2-c2ccccc2CO[C@H]1CN(C)C(=O)[C@@H](Cc1ccccc1)N(C)C,83.4% (inactive)
6,COc1cccc(S(=O)(=O)N(C)C[C@H]2OCc3ccccc3-c3c(n(C)c4ccccc34)C(=O)N([C@@H](C)CO)C[C@@H]2C)c1,28.3% (inactive)
7,CC(OC(=O)c1cc(Br)ccc1O)C(=O)Nc1ccc(S(=O)(=O)N2CCCC2)cc1 (stereo unspecified),47% (inactive)
8,O=C(COC(=O)c1ccccc1)c1ccc2c(c1)OCCO2,21.1% (inactive)
9,COC(=O)c1ccc2c(=O)[nH]c(COC(=O)c3c(-c4ccccc4)noc3C)nc2c1,11% (inactive)
10,Cc1ccc(S(=O)(=O)N[C@@H](Cc2ccccc2)C(=O)CCl)cc1,82.4% (inactive)
11,CCc1cnc(N2[C@H](C#N)[C@H](c3ccc(C#CCC4CCCC4)cc3)[C@@H]2CO)s1,56.6% (inactive)
12,CC(=O)O[C@@H]1C[C@@]2(C)[C@H](c3ccoc3)C[C@H]3O[C@]32[C@]2(C)C(=O)C(=O)C3C(C)(C)C(=O)C=C[C@]3(C)C12 (stereo partly specified),188% (inactive)
13,COc1ccc(S(=O)(=O)Nc2ccc3c(c2)C(=O)N([C@H](C)CO)C[C@@H](C)[C@@H](CN(C)Cc2ccc(C(F)(F)F)cc2)OCCCC[C@@H](C)O3)cc1,4.86% (inactive)
14,CCc1csc(N2[C@H](C#N)[C@H](c3ccc(C#Cc4ccc(F)cc4)cc3)[C@H]2CO)n1,30% (inactive)
15,COc1ccc(C#Cc2ccc([C@@H]3[C@H](CO)N4CCCCN(C(=O)Nc5cccc(F)c5)C[C@@H]34)cc2)cc1,50.4% (inactive)
16,Cc1ccccc1-c1ccc2c(c1)O[C@@H](CN(C)C(=O)Nc1ccc(C(F)(F)F)cc1)[C@@H](C)CN([C@@H](C)CO)S2(=O)=O,16.7% (inactive)
17,Nc1ccc(-c2cccc3c(=O)cc(N4CCOCC4)oc23)cc1,15.1% (inactive)
18,COc1ccc2c3c([nH]c2c1)[C@H](CO)N(C(=O)Nc1cccc(F)c1)CC31CCN(S(=O)(=O)c2cccc(C)c2)CC1,35% (inactive)
